Laboratory results reported in ChEMBL document CHEMBL4024727, “Synthesis and antimycobacterial screening of new thiazolyl-oxazole derivatives” (Eur J Med Chem, 2017).
Values after ≈ are worked out from the molar mass of the structure shown.

Key:
[1] = tested on: Mycobacterium tuberculosis; assay: Antitubercular activity against Mycobacterium bovis BCG ATCC 35743 dormant stage by nitrate reductase based two-fold dilution assay; format: functional; settings: BCG str. ATCC 35743
[2] = tested on: Mycobacterium tuberculosis; assay: Growth inhibition of Mycobacterium tuberculosis H37Ra ATCC 25177 at 30 ug/ml by XTT dye based two-fold dilution method relative to control; format: functional; settings: read-out: GI
Pseudomonas fluorescens [3] = assay: Growth inhibition of Pseudomonas fluorescens NCIM 2059 at 1 ug/ml measured after 8 hrs relative to control; format: functional; settings: NCIM 2059, 8 h, read-out: GI
[4] = Selectivity index, ratio of GI50 for human A549 cells to MIC for Mycobacterium tuberculosis H37Ra ATCC 25177 dormant stage; format: toxicity; settings: read-out: Selectivity Index
Staphylococcus aureus [5] = assay: Growth inhibition of Staphylococcus aureus NCIM 2602 at 1 ug/ml measured after 12 hrs relative to control; format: functional; settings: NCIM 2602, 12 h, read-out: GI
Escherichia coli [6] = assay: Growth inhibition of Escherichia coli NCIM 2576 at 10 ug/ml measured after 8 hrs relative to control; format: functional; settings: NCIM 2576, 8 h, read-out: GI
[7] = (§1) Growth inhibition of human HeLa cells by MTT assay; format: cell-based; settings: HeLa cells
HeLa = assay: as §1; format: cell-based; settings: hela
Bacillus subtilis [8] = assay: Antibacterial activity against Bacillus subtilis NCIM 2162 measured after 12 hrs; format: functional; settings: NCIM 2162, 12 h
Bacillus subtilis [9] = assay: Growth inhibition of Bacillus subtilis NCIM 2162 at 30 ug/ml measured after 12 hrs relative to control; format: functional; settings: NCIM 2162, 12 h, read-out: GI
[10] = Selectivity index, ratio of GI50 for human PANC1 cells to MIC for Mycobacterium bovis BCG ATCC 35743 dormant stage; format: toxicity; settings: PANC-1 cells, read-out: Selectivity Index
[11] = Selectivity index, ratio of GI50 for human PANC1 cells to MIC for Mycobacterium tuberculosis H37Ra ATCC 25177 dormant stage; format: toxicity; settings: PANC-1 cells, read-out: Selectivity Index
Escherichia coli [12] = assay: Growth inhibition of Escherichia coli NCIM 2576 at 1 ug/ml measured after 8 hrs relative to control; format: functional; settings: NCIM 2576, 8 h, read-out: GI
[13] = (§2) Growth inhibition of human PANC1 cells by MTT assay; format: cell-based, PANC-1; settings: PANC-1 cells
PANC-1 = assay: as §2; format: cell-based; settings: panc-1
Escherichia coli [14] = assay: Growth inhibition of Escherichia coli NCIM 2576 at 30 ug/ml measured after 8 hrs relative to control; format: functional; settings: NCIM 2576, 8 h, read-out: GI
[15] = tested on: Mycobacterium tuberculosis; assay: Antitubercular activity against Mycobacterium tuberculosis H37Ra ATCC 25177 dormant stage by XTT dye based two-fold dilution method; format: functional
Escherichia coli [16] = assay: Antibacterial activity against Escherichia coli NCIM 2576 measured after 8 hrs; format: functional; settings: NCIM 2576, 8 h
[17] = Selectivity index, ratio of GI50 for human HeLa cells to MIC for Mycobacterium tuberculosis H37Ra ATCC 25177 dormant stage; format: toxicity, cell-based; settings: read-out: Selectivity Index
Bacillus subtilis [18] = assay: Growth inhibition of Bacillus subtilis NCIM 2162 at 1 ug/ml measured after 12 hrs relative to control; format: functional; settings: NCIM 2162, 12 h, read-out: GI
[19] = tested on: Mycobacterium tuberculosis; assay: Growth inhibition of Mycobacterium tuberculosis H37Ra ATCC 25177 at 3 ug/ml by XTT dye based two-fold dilution method relative to control; format: functional; settings: read-out: GI
[20] = (§3) Growth inhibition of human A549 cells by MTT assay; format: cell-based; settings: A549 cells
A549 = assay: as §3; format: cell-based; settings: a549
[21] = Selectivity index, ratio of GI50 for human A549 cells to MIC for Mycobacterium bovis BCG ATCC 35743 dormant stage; format: toxicity; settings: read-out: Selectivity Index
Bacillus subtilis [22] = assay: Growth inhibition of Bacillus subtilis NCIM 2162 at 10 ug/ml measured after 12 hrs relative to control; format: functional; settings: NCIM 2162, 12 h, read-out: GI
Pseudomonas fluorescens [23] = assay: Growth inhibition of Pseudomonas fluorescens NCIM 2059 at 30 ug/ml measured after 8 hrs relative to control; format: functional; settings: NCIM 2059, 8 h, read-out: GI
Pseudomonas fluorescens [24] = assay: Growth inhibition of Pseudomonas fluorescens NCIM 2059 at 10 ug/ml measured after 8 hrs relative to control; format: functional; settings: NCIM 2059, 8 h, read-out: GI
Pseudomonas fluorescens [25] = assay: Antibacterial activity against Pseudomonas fluorescens NCIM 2059 measured after 8 hrs; format: functional; settings: NCIM 2059, 8 h
[26] = Selectivity index, ratio of GI50 for human HeLa cells to MIC for Mycobacterium bovis BCG ATCC 35743 dormant stage; format: toxicity, cell-based; settings: read-out: Selectivity Index
[27] = tested on: Mycobacterium tuberculosis; assay: Growth inhibition of Mycobacterium bovis BCG ATCC 35743 at 10 ug/ml by nitrate reductase based two-fold dilution assay relative to control; format: functional; settings: BCG str. ATCC 35743, read-out: GI
Staphylococcus aureus [28] = assay: Growth inhibition of Staphylococcus aureus NCIM 2602 at 10 ug/ml measured after 12 hrs relative to control; format: functional; settings: NCIM 2602, 12 h, read-out: GI
[29] = tested on: Mycobacterium tuberculosis; assay: Growth inhibition of Mycobacterium bovis BCG ATCC 35743 at 30 ug/ml by nitrate reductase based two-fold dilution assay relative to control; format: functional; settings: BCG str. ATCC 35743, read-out: GI
Staphylococcus aureus [30] = assay: Growth inhibition of Staphylococcus aureus NCIM 2602 at 30 ug/ml measured after 12 hrs relative to control; format: functional; settings: NCIM 2602, 12 h, read-out: GI
Staphylococcus aureus [31] = assay: Antibacterial activity against Staphylococcus aureus NCIM 2602 measured after 12 hrs; format: functional; settings: NCIM 2602, 12 h
[32] = tested on: Mycobacterium tuberculosis; assay: Growth inhibition of Mycobacterium tuberculosis H37Ra ATCC 25177 at 10 ug/ml by XTT dye based two-fold dilution method relative to control; format: functional; settings: read-out: GI
[33] = tested on: Mycobacterium tuberculosis; assay: Growth inhibition of Mycobacterium bovis BCG ATCC 35743 at 1 ug/ml by nitrate reductase based two-fold dilution assay relative to control; format: functional; settings: BCG str. ATCC 35743, read-out: GI

| SMILES | IC50 [1] | MIC90 [1] | inhibition of growth at 30 µg/mL [2] | inhibition of growth at 1 µg/mL (Pseudomonas fluorescens [3]) | selectivity ratio [4] | inhibition of growth at 1 µg/mL (Staphylococcus aureus [5]) | inhibition of growth at 10 µg/mL (Escherichia coli [6]) | GI50 [7] | GI90 (HeLa) | MIC (Bacillus subtilis [8]) | inhibition of growth at 30 µg/mL (Bacillus subtilis [9]) | selectivity ratio [10] | selectivity ratio [11] | inhibition of growth at 1 µg/mL (Escherichia coli [12]) | GI50 [13] | GI90 (PANC-1) | inhibition of growth at 30 µg/mL (Escherichia coli [14]) | IC50 [15] | MIC90 [15] | MIC (Escherichia coli [16]) | also measured |
| --- | --- | --- | --- | --- | --- | --- | --- | --- | --- | --- | --- | --- | --- | --- | --- | --- | --- | --- | --- | --- | --- |
| Cc1nc(-c2ccccc2)oc1-c1csc(Cc2ccc(Cl)cc2)n1 | 320 nM | 5.8 µM (≈ 2.13 µg/mL) | 98% | 81% | 95 | 79.1% | 84.5% | 124 µg/mL (≈ 339 µM) | > 250 µg/mL | 27.6 µg/mL | 90.4% | 117 | 95 | 78.7% | > 250 µg/mL | > 250 µg/mL | 97.9% | 350 nM | 7.19 µM (≈ 2.64 µg/mL) | 18.3 µg/mL | selectivity ratio [17]: 47; inhibition of growth at 1 µg/mL (Bacillus subtilis [18]): 74.2%; inhibition of growth at 3 µg/mL [19]: 92%; GI50 [20]: > 250 µg/mL; GI90 (A549): > 250 µg/mL; selectivity ratio [21]: 117; inhibition of growth at 10 µg/mL (Bacillus subtilis [22]): 85.2%; inhibition of growth at 30 µg/mL (Pseudomonas fluorescens [23]): 95%; inhibition of growth at 10 µg/mL (Pseudomonas fluorescens [24]): 87.3%; MIC (Pseudomonas fluorescens [25]): 18 µg/mL; selectivity ratio [26]: 58; inhibition of growth at 10 µg/mL [27]: 97%; inhibition of growth at 10 µg/mL (Staphylococcus aureus [28]): 85.6%; inhibition of growth at 30 µg/mL [29]: 97%; inhibition of growth at 30 µg/mL (Staphylococcus aureus [30]): 92.4%; MIC (Staphylococcus aureus [31]): 22.7 µg/mL; inhibition of growth at 10 µg/mL [32]: 93%; inhibition of growth at 1 µg/mL [33]: 96% |
| Cc1nc(-c2ccccc2)oc1-c1csc(Cc2cccc(Cl)c2)n1 | 760 nM | 3.76 µM (≈ 1.38 µg/mL) | 98% | 79.3% | 195 | 73.2% | 88.7% | 68.7 µg/mL (≈ 187 µM) | > 250 µg/mL | 21.7 µg/mL | 92% | 181 | 195 | 74.7% | > 250 µg/mL | > 250 µg/mL | 95.9% | 230 nM | 3.49 µM (≈ 1.28 µg/mL) | 15.4 µg/mL | selectivity ratio [17]: 54; inhibition of growth at 1 µg/mL (Bacillus subtilis [18]): 80.3%; inhibition of growth at 3 µg/mL [19]: 96%; GI50 [20]: > 250 µg/mL; GI90 (A549): > 250 µg/mL; selectivity ratio [21]: 181; inhibition of growth at 10 µg/mL (Bacillus subtilis [22]): 86.8%; inhibition of growth at 30 µg/mL (Pseudomonas fluorescens [23]): 95.8%; inhibition of growth at 10 µg/mL (Pseudomonas fluorescens [24]): 82.7%; MIC (Pseudomonas fluorescens [25]): 20.9 µg/mL; selectivity ratio [26]: 50; inhibition of growth at 10 µg/mL [27]: 94%; inhibition of growth at 10 µg/mL (Staphylococcus aureus [28]): 81.3%; inhibition of growth at 30 µg/mL [29]: 95%; inhibition of growth at 30 µg/mL (Staphylococcus aureus [30]): 92.2%; MIC (Staphylococcus aureus [31]): 25.6 µg/mL; inhibition of growth at 10 µg/mL [32]: 97%; inhibition of growth at 1 µg/mL [33]: 94% |
| Cc1nc(-c2ccc(F)cc2)oc1-c1csc(Cc2cccc(Cl)c2)n1 | 360 nM | 6.26 µM (≈ 2.41 µg/mL) | 96% | 72.5% | 88 | 71.7% | 86.1% | 168 µg/mL (≈ 436 µM) | > 250 µg/mL | 53.8 µM | 93.7% | 104 | 88 | 70.5% | > 250 µg/mL | > 250 µg/mL | 91.2% | 230 nM | 7.38 µM (≈ 2.84 µg/mL) | 69.6 µM | selectivity ratio [17]: 59; inhibition of growth at 1 µg/mL (Bacillus subtilis [18]): 79.7%; inhibition of growth at 3 µg/mL [19]: 93%; GI50 [20]: > 250 µg/mL; GI90 (A549): > 250 µg/mL; selectivity ratio [21]: 104; inhibition of growth at 10 µg/mL (Bacillus subtilis [22]): 85.4%; inhibition of growth at 30 µg/mL (Pseudomonas fluorescens [23]): 93.3%; inhibition of growth at 10 µg/mL (Pseudomonas fluorescens [24]): 85.7%; MIC (Pseudomonas fluorescens [25]): 57.4 µM; selectivity ratio [26]: 70; inhibition of growth at 10 µg/mL [27]: 95%; inhibition of growth at 10 µg/mL (Staphylococcus aureus [28]): 82.4%; inhibition of growth at 30 µg/mL [29]: 97%; inhibition of growth at 30 µg/mL (Staphylococcus aureus [30]): 95.6%; MIC (Staphylococcus aureus [31]): 55.6 µM; inhibition of growth at 10 µg/mL [32]: 92%; inhibition of growth at 1 µg/mL [33]: 98% |
